Broadly, the IC50 is the concentration at which inhibition is half-maximal.

Assay [1] relates to TNFα production in human monocytic cell line THP-1. Put plainly: Functional assay: inhibition of LPS-induced TNFα production in THP-1 cells. The class given is cell-based. The note with it: LPS 10 μg/ml, 5 h at 37° C., TNFα ELISA.
Assay [2] addresses T1, human p38alfa (SAPKa) enzyme (Homo sapiens, UniProt Q16539).
T1 construct: purchased University of Dundee
The assay is described as follows: p38alpha enzymatic inhibition assay (FRET, ATF2 phosphorylation). The class given is biochemical. The conditions noted are these: 1 h pre-incubation; biotinylated ATF2 0.62 μM, ATP 60 μM; 1 h at 25° C.; read-out: p38α IC50.

T1 sequence (Q16539 whole entry): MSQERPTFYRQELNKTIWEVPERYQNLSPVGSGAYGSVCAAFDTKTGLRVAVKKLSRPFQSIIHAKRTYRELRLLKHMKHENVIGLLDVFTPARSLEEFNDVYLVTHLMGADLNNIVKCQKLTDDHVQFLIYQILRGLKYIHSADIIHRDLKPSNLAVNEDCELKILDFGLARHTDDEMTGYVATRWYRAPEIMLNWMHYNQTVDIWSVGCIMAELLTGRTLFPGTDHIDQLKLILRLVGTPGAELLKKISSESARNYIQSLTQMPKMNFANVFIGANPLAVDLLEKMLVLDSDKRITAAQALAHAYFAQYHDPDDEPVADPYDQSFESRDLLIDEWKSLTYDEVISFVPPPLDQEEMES

In turn, `[O-][n+]1ccc2c(-c3ccc(F)cc3F)ccnc2c1-c1c(F)cccc1F` [Example 19, 4-(2,4-Difluorophenyl)-8-(2,6-difluorophenyl)-1,7-naphthyridine 7-oxide] yielded a half-inhibitory concentration (IC50) in assay [1] of 223 nM.

In turn, `[O-][n+]1ccc2c(-c3ccc(F)cc3Cl)ccnc2c1-c1c(Cl)cccc1Cl` [Example 40, 4-(2-Chloro-4-fluorophenyl)-8-(2,6-dichlorophenyl)-1,7-naphthyridine 7-oxide] had a concentration for half-maximal inhibition (IC50) in assay [1] of 43.5 nM.

Turning to `CC(C)(C)N1CCC(c2cc(-c3ccc(F)cc3Cl)c3cc[n+]([O-])c(-c4c(F)cccc4F)c3n2)CC1` [Example 48, 2-(1-Tert-butylpiperidin-4-yl)-4-(2-chloro-4-fluorophenyl)-8-(2,6-difluorophenyl)-1,7-naphthyridine 7-oxide], the half-maximal inhibitory concentration (IC50) in assay [1] worked out at 3 nM; in assay [2], 1.6 nM.

In the case of `[O-][n+]1ccc2c(-c3ccccc3Cl)cc(C3CCNCC3)nc2c1-c1c(Cl)cccc1Cl` [Example 53, 4-(2-Chlorophenyl)-8-(2,6-dichlorophenyl)-2-piperidin-4-yl-1,7-naphthyridine 7-oxide], the IC50 in assay [1] worked out at 0.53 nM; in assay [2], 0.34 nM.

In assay [1], `[O-][n+]1ccc2c(-c3ccc(F)cc3Cl)cc(C3CCNCC3)nc2c1-c1c(Cl)cccc1Cl` [Example 43, 4-(2-Chloro-4-fluorophenyl)-8-(2,6-dichlorophenyl)-2-piperidin-4-yl-1,7-naphthyridine 7-oxide] displayed an IC50 of 2.9 nM.

Take `CC(C)(C)N1CCC(c2cc(-c3ccc(F)cc3Cl)c3cc[n+]([O-])c(-c4c(Cl)cccc4Cl)c3n2)CC1` [Example 49, 2-(1-Tert-butylpiperidin-4-yl)-4-(2-chloro-4-fluorophenyl)-8-(2,6-dichlorophenyl)-1,7-naphthyridine 7-oxide]: in assay [1], the midpoint of inhibition, the IC50, lay at 0.46 nM.

Take `[O-][n+]1ccc2c(-c3ccc(F)cc3F)cc(C3CCNCC3)nc2c1-c1c(F)cccc1F` [Example 29, 4-(2,4-Difluorophenyl)-8-(2,6-difluorophenyl)-2-piperidin-4-yl-1,7-naphthyridine 7-oxide]: the IC50 in assay [1] is 2.45 nM; in assay [2], 0.9 nM.

Regarding `CC(C)(C)N1CCC(c2cc(-c3ccccc3Cl)c3cc[n+]([O-])c(-c4c(Cl)cccc4Cl)c3n2)CC1` [Example 59, 2-(1-Tert-butylpiperidin-4-yl)-4-(2-chlorophenyl)-8-(2,6-dichlorophenyl)-1,7-naphthyridine 7-oxide], the IC50 in assay [1] was determined as 0.1 nM; in assay [2], 0.41 nM.

As to `CC(C)(C)N1CCC(c2cc(-c3ccc(F)cc3F)c3cc[n+]([O-])c(-c4c(Cl)cccc4Cl)c3n2)CC1` [Example 36, 2-(1-Tert-butylpiperidin-4-yl)-8-(2,6-dichlorophenyl)-4-(2,4-difluorophenyl)-1,7-naphthyridine 7-oxide], the results for the IC50 in assay [1] and in assay [2] were 1.6 nM and 1.2 nM, respectively.

Turning to `[O-][n+]1ccc2c(-c3ccc(F)cc3Cl)ccnc2c1-c1c(F)cccc1F` [Example 39, 4-(2-Chloro-4-fluorophenyl)-8-(2,6-difluorophenyl)-1,7-naphthyridine 7-oxide], the 50% inhibitory concentration (IC50) in assay [1] came to 63 nM; in assay [2], 87 nM.

Regarding `[O-][n+]1ccc2c(-c3ccc(F)cc3F)cc(NC3CCNCC3)nc2c1-c1c(Cl)cccc1Cl` [Example 86, 8-(2,6-Dichlorophenyl)-4-(2,4-difluorophenyl)-N-piperidin-4-yl-1,7-naphthyridin-2-amine 7-oxide], the figures for the IC50 in assay [1] and in assay [2] were 0.9 nM and 0.37 nM, respectively.

With `[O-][n+]1ccc2c(-c3ccc(F)cc3F)cc(N3CCNCC3)nc2c1-c1c(Cl)cccc1Cl` [Example 90, 8-(2,6-Dichlorophenyl)-4-(2,4-difluorophenyl)-2-piperazin-1-yl-1,7-naphthyridine 7-oxide], the IC50 in assay [1] worked out at 0.8 nM; in assay [2] it was 1.1 nM.

Regarding `CC(C)(C)N1CCC(c2cc(-c3ccc(F)cc3F)c3cc[n+]([O-])c(-c4c(F)cccc4F)c3n2)CC1` [Example 35, 2-(1-Tert-butylpiperidin-4-yl)-4-(2,4-difluorophenyl)-8-(2,6-difluorophenyl)-1,7-naphthyridine 7-oxide], the IC50 turned out to be 3.4 nM in assay [1] and 2.8 nM in assay [2].

The compound `[O-][n+]1ccc2c(-c3ccccc3Cl)cc(C3CCNCC3)nc2c1-c1c(F)cccc1F` [Example 52, 4-(2-Chlorophenyl)-8-(2,6-difluorophenyl)-2-piperidin-4-yl-1,7-naphthyridine 7-oxide] had an IC50 in assay [1] of 4.2 nM.

In turn, `[O-][n+]1ccc2c(-c3ccc(F)cc3F)cc(N3CCNCC3)nc2c1-c1c(F)cccc1F` [Example 91, 4-(2,4-Difluorophenyl)-8-(2,6-difluorophenyl)-2-piperazin-1-yl-1,7-naphthyridine 7-oxide] gave an IC50 in assay [1] of 4.1 nM.

Regarding `[O-][n+]1ccc2c(-c3ccc(F)cc3F)cc(OC3CCNCC3)nc2c1-c1c(F)cccc1F` [Example 96, 4-(2,4-Difluorophenyl)-8-(2,6-difluorophenyl)-2-(piperidin-4-yloxy)-1,7-naphthyridine 7-oxide], the IC50 in assay [1] stood at 3.2 nM; in assay [2] it was 0.22 nM.

`[O-][n+]1ccc2c(-c3ccc(F)cc3F)cc(OC3CCNCC3)nc2c1-c1c(Cl)cccc1Cl` [Example 95, 8-(2,6-Dichlorophenyl)-4-(2,4-difluorophenyl)-2-(piperidin-4-yloxy)-1,7-naphthyridine 7-oxide]: the IC50 in assay [1] turned out to be 0.2 nM; in assay [2], 0.92 nM.

(Values after patent US7906530B2, “1,7-naphthyridine derivatives as p38 MAP kinase inhibitors” (Laboratorios Almirall, S.A., priority 2006, dated 2011).)
